Reference: ChEMBL document CHEMBL5376003, “Structure-Activity Relationship of FL118 Platform Position 7 Versus Position 9-Derived Compounds and Their Mechanism of Action and Antitumor Activity” (J Med Chem, 2023)
Calls of active or inactive are those of the source. The calls are words filed in the database; no cut-off is given here.

Assays:
HCT-116 [1] = assay: Induction of apoptosis in human HCT-116 cells assessed as upregulation of Bax protein expression incubated for 48 hrs by Western blotting analysis; assay type: functional, cell-based
Cell membrane = assay: Induction of mitochondrial membrane potential loss in human HCT-116 cells assessed as ratio of red to green fluorescence intensity at 20 nM incubated for 24 hrs by JC-1 staining based flow cytometry; assay type: subcellular
[2] = target: T1, DNA topoisomerase 1 (Homo sapiens) (UniProt P11387); assay: Inhibition of topoisomerase 1 (unknown origin) assessed as relaxation of supercoiled plasmid pBR322 DNA at 25 to 100 uM incubated for 30 mins by ethidium bromide staining based agarose gel electrophoresis; conditions: dose 25-100 µM
T1 sequence (whole entry): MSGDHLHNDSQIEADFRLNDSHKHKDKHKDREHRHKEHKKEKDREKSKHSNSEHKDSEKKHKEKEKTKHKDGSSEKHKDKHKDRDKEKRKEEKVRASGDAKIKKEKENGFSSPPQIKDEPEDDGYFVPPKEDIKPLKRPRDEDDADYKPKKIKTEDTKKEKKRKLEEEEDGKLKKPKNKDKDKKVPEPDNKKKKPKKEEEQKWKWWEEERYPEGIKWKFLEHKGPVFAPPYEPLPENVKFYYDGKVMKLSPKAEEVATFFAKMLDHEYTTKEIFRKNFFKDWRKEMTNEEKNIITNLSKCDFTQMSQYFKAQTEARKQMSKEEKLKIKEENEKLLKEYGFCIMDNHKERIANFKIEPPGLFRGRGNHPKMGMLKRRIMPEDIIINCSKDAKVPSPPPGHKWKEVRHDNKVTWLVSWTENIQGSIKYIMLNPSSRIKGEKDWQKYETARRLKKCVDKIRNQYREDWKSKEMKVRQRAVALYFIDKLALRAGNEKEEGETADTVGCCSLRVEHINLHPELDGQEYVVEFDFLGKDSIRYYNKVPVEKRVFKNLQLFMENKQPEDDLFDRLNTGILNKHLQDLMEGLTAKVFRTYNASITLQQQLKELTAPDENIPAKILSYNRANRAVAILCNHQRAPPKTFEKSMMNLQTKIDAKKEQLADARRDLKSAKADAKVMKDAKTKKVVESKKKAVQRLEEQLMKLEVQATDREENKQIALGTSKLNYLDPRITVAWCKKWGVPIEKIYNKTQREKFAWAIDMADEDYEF

HCT-116 [3] = assay: Induction of apoptosis in human HCT-116 cells assessed as late apoptotic cells at 10 nM incubated for 48 hrs by Annexin V-FITC/PI staining based flow cytometry assay; assay type: functional
HCT-116 [4] = assay: Induction of apoptosis in human HCT-116 cells assessed as upregulation of p21 protein expression incubated for 48 hrs by Western blotting analysis; assay type: functional, cell-based
HCT-116 [5] = assay: Induction of apoptosis in human HCT-116 cells assessed as downregulation of Bcl-2 protein expression incubated for 48 hrs by Western blotting analysis; assay type: functional, cell-based
HCT-116 [6] = assay: Induction of apoptosis in human HCT-116 cells assessed as increase in caspase-9 activity incubated for 48 hrs by BCA protein assay; assay type: functional, cell-based
HCT-116 [7] = assay: Induction of apoptosis in human HCT-116 cells assessed as modulation of DDX55 mRNA expression at 10 to 500 nM incubated for 6 to 48 hrs by RNA analysis; assay type: functional, cell-based; conditions: dose 10-500 nM, time 6-48 hrs
HCT-116 [8] = assay: Induction of apoptosis in human HCT-116 cells assessed as downregulation of PPP2CA gene expression at 10 to 500 nM incubated for 6 to 48 hrs by RNA analysis; assay type: functional, cell-based; conditions: dose 10-500 nM, time 6-48 hrs
HCT-116 [9] = assay: Induction of apoptosis in human HCT-116 cells assessed as downregulation of AAAS gene expression at 10 to 500 nM incubated for 6 to 48 hrs by RNA analysis; assay type: functional, cell-based; conditions: dose 10-500 nM, time 6-48 hrs
HCT-116 [10] = assay: Induction of apoptosis in human HCT-116 cells assessed as downregulation of NUP98 gene expression at 10 to 500 nM incubated for 6 to 48 hrs by RNA analysis; assay type: functional, cell-based; conditions: dose 10-500 nM, time 6-48 hrs
HCT-116 [11] = assay: Induction of apoptosis in human HCT-116 cells assessed as downregulation of SEH1L gene expression at 10 to 500 nM incubated for 6 to 48 hrs by RNA analysis; assay type: functional, cell-based; conditions: dose 10-500 nM, time 6-48 hrs
HCT-116 [12] = assay: Induction of apoptosis in human HCT-116 cells assessed as downregulation of ATIC gene expression at 10 to 500 nM incubated for 6 to 48 hrs by RNA analysis; assay type: functional, cell-based; conditions: dose 10-500 nM, time 6-48 hrs
HCT-116 [13] = assay: Induction of apoptosis in human HCT-116 cells assessed as downregulation of LIPE gene expression at 10 to 500 nM incubated for 6 to 48 hrs by RNA analysis; assay type: functional, cell-based; conditions: dose 10-500 nM, time 6-48 hrs
PDX27454 [14] = assay: Antitumor activity against human PDX27454 cells xenografted in SCID mouse model assessed as reduction in tumor growth at 5 to 15 mg/kg,ip administrated once per week for 4 weeks; assay type: functional, organism-based; conditions: dose 5-15 mg/kg
HCT-116 [15] = assay: Induction of apoptosis in human HCT-116 cells assessed as downregulation of XIAP protein expression incubated for 48 hrs by Western blotting analysis; assay type: functional, cell-based
HCT-116 [16] = assay: Activation of innate immune response in human HCT-116 cells assessed as upregulation of IL-1A gene expression at 10 to 500 nM incubated for 6 to 48 hrs by RNA analysis; assay type: functional, cell-based; conditions: dose 10-500 nM, time 6-48 hrs
HCT-116 [17] = assay: Induction of apoptosis in human HCT-116 cells assessed as downregulation of NUP58 gene expression at 10 to 500 nM incubated for 6 to 48 hrs by RNA analysis; assay type: functional, cell-based; conditions: dose 10-500 nM, time 6-48 hrs
[18] = Toxicity in SCID mouse xenografted with human PDX27454 cells assessed as animal death at 10 mg/kg,ip administrated once per week for 4 weeks; assay type: organism-based; conditions: in vivo, 672 h
PDX27454 [19] = assay: Antitumor activity against human PDX27454 cells xenografted in SCID mouse model assessed as reduction in tumor growth at 3 to 7 mg/kg,po administrated once per week for 4 weeks; assay type: functional, organism-based; conditions: dose 3-7 mg/kg
[20] = Toxicity in SCID mouse xenografted with human PDX27454 cells assessed as body weight loss at 3 to 5 mg/kg,po administrated once per week for 4 weeks; assay type: organism-based; conditions: in vivo, 672 h, dose 3-5 mg/kg
HCT-116 [21] = assay: Induction of apoptosis in human HCT-116 cells assessed as downregulation of GNPDA2 gene expression at 10 to 500 nM incubated for 6 to 48 hrs by RNA analysis; assay type: functional, cell-based; conditions: dose 10-500 nM, time 6-48 hrs
[22] = Toxicity in SCID mouse assessed as maximum tolerated dose at po administration; assay type: organism-based; conditions: in vivo
PDX27454 [23] = assay: Antitumor activity against human PDX27454 cells xenografted in SCID mouse model assessed as reduction in tumor growth at 10 mg/kg,ip administrated once per week for 4 weeks; assay type: functional, organism-based
PDX27454 [24] = assay: Antitumor activity against human PDX27454 cells xenografted in SCID mouse model assessed as reduction in tumor growth at 15 mg/kg,ip administrated once per week for 4 weeks; assay type: functional, organism-based
[25] = Toxicity in SCID mouse xenografted with human PDX27454 cells assessed as body weight loss at 10 mg/kg,po administrated once per week for 4 weeks; assay type: organism-based; conditions: in vivo, 672 h
[26] = Toxicity in SCID mouse xenografted with human PDX27454 cells assessed as body weight loss at 15 mg/kg,ip administrated once per week for 4 weeks; assay type: organism-based; conditions: in vivo, 672 h

For CC[C@@]1(O)C(=O)OCc2c1cc1n(c2=O)Cc2c-1nc1cc3c(cc1c2-c1cc(OC)cc(OC)c1)OCO3, the Activity (HCT-116 [1]) was “Dose-Dependent Effect”, the Ratio (Cell membrane) was 2.62 and the “Topoisomerase 1 inhibition” value [2] was “Active”. For the same compound, the Activity (HCT-116 [3]) was 10.87%, the Activity (HCT-116 [4]) was “Dose-Dependent Effect” and the Activity (HCT-116 [5]) was “Dose-Dependent Effect”. For the same compound, the Activity (HCT-116 [6]) was “Dose-Dependent Effect”, the Activity (HCT-116 [7]) was “Active” and the Activity (HCT-116 [8]) was “Active”. For the same compound, the Activity (HCT-116 [9]) was “Active”, the Activity (HCT-116 [10]) was “Active” and the Activity (HCT-116 [11]) was “Active”. For the same compound, the Activity (HCT-116 [12]) was “Active”, the Activity (HCT-116 [13]) was “Active” and the Activity (PDX27454 [14]) was “Active”.
In the case of CC[C@@]1(O)C(=O)OCc2c1cc1n(c2=O)Cc2c-1nc1cc3c(cc1c2-c1ccc(OC)cc1)OCO3, the “Topoisomerase 1 inhibition” value [2] was “Active”, the Activity (HCT-116 [15]) was “Active” and the Activity (HCT-116 [7]) was “Active”. The Activity (HCT-116 [16]) was “Active”, the Activity (HCT-116 [8]) was “Active” and the Activity (HCT-116 [9]) was “Active”. The Activity (HCT-116 [17]) was “Active”, the Activity (HCT-116 [10]) was “Active” and the Activity (HCT-116 [11]) was “Active”. The Activity (HCT-116 [12]) was “Active”, the Activity (HCT-116 [13]) was “Active” and the Activity [18] was “Toxic”. The Activity (PDX27454 [19]) was “Active” and the Activity [20] was “Toxic”.
With CC[C@@]1(O)C(=O)OCc2c1cc1n(c2=O)Cc2cc3cc4c(cc3nc2-1)OCO4 the Activity (HCT-116 [7]) was “Active”, the Activity (HCT-116 [16]) was “Active” and the Activity (HCT-116 [8]) was “Active”. For the same compound, the Activity (HCT-116 [9]) was “Active”, the Activity (HCT-116 [21]) was “Active” and the Activity (HCT-116 [17]) was “Active”. The Activity (HCT-116 [10]) was “Active”, the Activity (HCT-116 [11]) was “Active” and the Activity (HCT-116 [12]) was “Active”. The Activity (HCT-116 [13]) was “Active” and the MTD [22] was 10 mg/kg.
In the case of CCc1ccc(-c2c3c(nc4cc5c(cc24)OCO5)-c2cc4c(c(=O)n2C3)COC(=O)[C@]4(O)CC)cc1, the “Topoisomerase 1 inhibition” value [2] was “Active”, the Activity (HCT-116 [15]) was “Active” and the Activity (HCT-116 [7]) was “Active”. For the same compound, the Activity (HCT-116 [16]) was “Active”, the Activity (HCT-116 [8]) was “Active” and the Activity (HCT-116 [9]) was “Active”. For the same compound, the Activity (HCT-116 [17]) was “Active”, the Activity (HCT-116 [10]) was “Active” and the Activity (HCT-116 [11]) was “Active”. The Activity (HCT-116 [12]) was “Active”, the Activity (HCT-116 [13]) was “Active” and the Activity (PDX27454 [23]) was “inactive”. For the same compound, the Activity (PDX27454 [24]) was “inactive”, the Activity [25] was “Toxic” and the Activity [26] was “Non-Toxic”.
